Consider one compound from US9381518B2, “Nano-suspension process” (MERCK SHARP & DOHME CORP., priority 2011, dated 2016).

Like-named read-outs stand apart in the source and are kept apart here.

For data set [1] the following is noted: 90 minutes. Here is the method: Example nano-suspensions were evaluated for particle size and particle size distribution using dynamic light scattering (DLS, Wyatt, DyanoPro Plate Reader). Results reported for particle size analysis (D50 and D90) have their ordinary meaning as understood in the art of particle-size analysis. Unless otherwise indicated, values for D50 and D90 are reported in nanometers (nm). The APC in example nano-suspensions was evaluated using high performance liquid chromatography (HPLC, Hewlett Packard, Agilent 1100). Residual metals analysis was performed using inductively coupled plasma mass spectroscopy (ICP-MS, Perkin Elmer).
The temperature of each nano-suspension was determined using a thermometer immediately after the milling time was completed. Particle size and metals content were analyzed as described herein. The nano-suspension product produced in each operation was recovered through centrifuge filtration over a 10 micron polypropylene mesh (Nanomill) or through a syringe equipped with a 20-gauge needle (acoustic mixer). In the case of the nano-suspension prepared with acoustic mixing, the YTZ milling media is sufficiently dense that it settles from the nano-suspension and permits separation by decantation without the need for separation through a mesh.

Data set [2] in a line: Particle size analysis (D50, D90) of nano-suspensions by dynamic light scattering. The class given is physicochemical. Particulars: 90 minutes, PVP-K29-32/SDS in water.

Consider `COc1ccc2cc([C@H](C)C(=O)O)ccc2c1` [Naproxen sodium], for which the “Residual Metals” value is over 1000 ppm in data set [1] (Elan Nanomill high-shear milling) and under 1 ppm in data set [1] (Resodyn LabRAM acoustic mixer). The “Drug nanoparticle diameter (D50)” value in data set [2] (Elan Nanomill high-shear milling, polystyrene milling beads) was found to be 354 nm; in data set [2] (Resodyn LabRAM acoustic mixer, YTZ milling beads), 286 nm.
